ChEMBL document CHEMBL1135049, “Protective effects of polygodial and related compounds on ethanol-induced gastric mucosal lesions in rats: structural requirements and mode of action” (2002)

Columns and labels:
[1] = tested on: Rattus norvegicus; experiment: Inhibitory effect of perorally administered compound (1.0 mg/kg) on gastric lesions induced by ethanol in 6 rats with observed lession index (76.4 mm) was determined; type: functional, Stomach
[2] = tested on: Rattus norvegicus; experiment: Inhibitory effect of perorally administered compound (1.0 mg/kg) on gastric lesions induced by ethanol in 9 rats with observed lession index (100.5 mm) was determined; type: functional, Stomach
[3] = tested on: Rattus norvegicus; experiment: Inhibitory effect of perorally administered compound (1.0 mg/kg) on gastric lesions induced by ethanol in 9 rats with observed lession index (88.1 mm) was determined; type: functional, Stomach
[4] = tested on: Rattus norvegicus; experiment: Inhibitory effect of perorally administered compound (0.2 mg/kg) on gastric lesions induced by ethanol in 7 rats with observed lession index (50.0 mm) was determined; type: functional, Stomach
[5] = tested on: Rattus norvegicus; experiment: Inhibitory effect of perorally administered compound (1.0 mg/kg) on gastric lesions induced by ethanol in 6 rats with observed lession index (0.9 mm) was determined; type: functional, Stomach
[6] = tested on: Rattus norvegicus; experiment: Inhibitory effect of perorally administered compound (0.1 mg/kg) on gastric lesions induced by ethanol in 7 rats with observed lession index (95.0 mm) was determined; type: functional, Stomach
[7] = tested on: Rattus norvegicus; experiment: Gastroprotective effect of compound was determined in rats at a concentration of 0.1 mg/kg po; type: functional
[8] = tested on: Rattus norvegicus; experiment: Inhibitory effect of perorally administered compound (0.5 mg/kg) on gastric lesions induced by ethanol in 7 rats with observed lession index (4.3 mm) was determined; type: functional, Stomach
[9] = tested on: Rattus norvegicus; experiment: Inhibitory effect of perorally administered compound (0.001 mg/kg) on gastric lesions induced by ethanol in 9 rats with observed lession index (12.1 mm) was determined; type: functional, Stomach
[10] = tested on: Rattus norvegicus; experiment: Inhibitory effect of perorally administered compound (0.0005 mg/kg) on gastric lesions induced by ethanol in 10 rats with observed lession index (49.2 mm) was determined; type: functional, Stomach
[11] = tested on: Rattus norvegicus; experiment: Inhibitory effect of perorally administered compound (1.0 mg/kg) on gastric lesions induced by ethanol in 6 rats with observed lession index (91 mm) was determined; type: functional, Stomach
[12] = tested on: Rattus norvegicus; experiment: Inhibitory effect of perorally administered compound (1.0 mg/kg) on gastric lesions induced by ethanol in 6 rats with observed lession index (103.7 mm) was determined; type: functional, Stomach
[13] = tested on: Rattus norvegicus; experiment: Inhibitory effect of perorally administered compound (1.0 mg/kg) on gastric lesions induced by ethanol in 5 rats with observed lession index (68.7 mm) was determined; type: functional, Stomach
[14] = tested on: Rattus norvegicus; experiment: Inhibitory effect of perorally administered compound (0.2 mg/kg) on gastric lesions induced by ethanol in 5 rats with observed lession index (91.3 mm) was determined; type: functional, Stomach
[15] = tested on: Rattus norvegicus; experiment: Inhibitory effect of perorally administered compound (0.2 mg/kg) on gastric lesions induced by ethanol in 7 rats with observed lession index (62.7 mm) was determined; type: functional, Stomach
[16] = tested on: Rattus norvegicus; experiment: Inhibitory effect of perorally administered compound (1.0 mg/kg) on gastric lesions induced by ethanol in 6 rats with observed lession index (8.5 mm) was determined; type: functional, Stomach
[17] = tested on: Rattus norvegicus; experiment: Gastroprotective effect of compound was determined in rats at a concentration of 0.05 mg/kg po; type: functional
[18] = tested on: Rattus norvegicus; experiment: Inhibitory effect of perorally administered compound (0.05 mg/kg) on gastric lesions induced by ethanol in 7 rats with observed lession index (120 mm) was determined; type: functional, Stomach
[19] = tested on: Rattus norvegicus; experiment: Inhibitory effect of perorally administered compound (0.1 mg/kg) on gastric lesions induced by ethanol in 7 rats with observed lession index (90.3 mm) was determined; type: functional, Stomach
[20] = tested on: Rattus norvegicus; experiment: Inhibitory effect of perorally administered compound (0.5 mg/kg) on gastric lesions induced by ethanol in 7 rats with observed lession index (17.1 mm) was determined; type: functional, Stomach
[21] = tested on: Rattus norvegicus; experiment: Inhibitory effect of perorally administered compound (0.0125 mg/Kg) on gastric lesions induced by ethanol in 5 rats with observed lession index (129.6 mm) was determined; type: functional, Stomach
[22] = tested on: Rattus norvegicus; experiment: Inhibitory effect of perorally administered compound (0.1 mg/kg) on gastric lesions induced by ethanol in 5 rats with observed lession index (29.1 mm) was determined; type: functional, Stomach
[23] = tested on: Rattus norvegicus; experiment: Inhibitory effect of perorally administered compound (0.2 mg/kg) on gastric lesions induced by ethanol in 5 rats with observed lession index (12.6 mm) was determined; type: functional, Stomach
[24] = tested on: Rattus norvegicus; experiment: Gastroprotective effect of compound was determined in rats at a peroral dose of 0.0125 mg/kg; type: functional; conditions: route oral
[25] = tested on: Rattus norvegicus; experiment: Inhibitory effect of perorally administered compound (0.5 mg/kg) on gastric lesions induced by ethanol in 7 rats with observed lession index (0.0 mm) was determined; type: functional, Stomach
[26] = tested on: Rattus norvegicus; experiment: Inhibitory effect of perorally administered compound (0.05 mg/kg) on gastric lesions induced by ethanol in 5 rats with observed lession index (48.8 mm) was determined; type: functional, Stomach
[27] = tested on: Rattus norvegicus; experiment: Inhibitory effect of perorally administered compound (0.025 mg/kg) on gastric lesions induced by ethanol in 5 rats with observed lession index (84.8 mm) was determined; type: functional, Stomach

`CC1(C)CCC[C@@]2(C)C1CC=C(C(=O)O)[C@@H]2C(=O)O` (some centres not stated) gave an Inhibition [1] of 47.7%.

For `CC1(C)CCC[C@@]2(C)C1CC=C(CO)[C@@H]2CO` (some centres not stated), the Inhibition [2] was 27.6%.

In the case of `CC(=O)OCC1=CCC2C(C)(C)CCC[C@]2(C)[C@H]1COC(C)=O` (some centres not stated), the Inhibition [3] is reported as 36.5%.

`CO[C@@H]1O[C@@H](OC)[C@H]2C1=CCC1C(C)(C)CCC[C@@]12C` (some centres not stated) gave an Inhibition [4] of 62.1%, an Inhibition [5] of 99.3% and an Inhibition [6] of 28%. It also gave an ED50 [7] of 0.15 mg/kg and an Inhibition [8] of 96.7%.

For `CCCCC(C)(C)[C@H](O)/C=C/C1[C@H](O)CC(=O)[C@@H]1C/C=C\CCCC(=O)O` (some centres not stated), the Inhibition [9] was 91.3% and the Inhibition [10] was 64.5%.

`COC(=O)C1=CCC2C(C)(C)CCC[C@]2(C)[C@H]1C(=O)OC` (some centres not stated) showed an Inhibition [11] of 37.8%.

`CC1(C)CCC[C@@]2(C)C1CC=C1COC[C@@H]12` (some centres not stated) gave an Inhibition [12] of 29.1%.

`CO[C@@H]1OCC2=CCC3C(C)(C)CCC[C@]3(C)[C@H]21` (some centres not stated) was tested, and the Inhibition [13] was 54.6% and the Inhibition [14] was 39.6%.

Compound `CO[C@H]1O[C@@H](OC)[C@H]2C1=CCC1C(C)(C)CCC[C@@]12C` (some centres not stated) has an Inhibition [15] of 53.8%, an Inhibition [16] of 93.7% and an ED50 [17] of 0.17 mg/kg. The Inhibition [18] was 11.5%, the Inhibition [19] was 33.4% and the Inhibition [20] was 87.4%.

`CC1(C)CCC[C@]2(C)[C@@H](C=O)C(C=O)=CC[C@@H]12` [POLYGODIAL] was tested, and the Inhibition [21] was 23.5%, the Inhibition [22] was 82.8% and the Inhibition [23] was 92.6%. It also gave an ED50 [24] of 0.028 mg/kg, an Inhibition [25] of 100% and an Inhibition [26] of 71.2%. For the same compound, the Inhibition [27] was 50%.
